Molecular target: T1, human PDE4B1 (Homo sapiens, UniProt Q07343)
T1 construct: host or cells: Sf9 cells
Experiment: cAMP HTRF assay to determine the activity of hPDE4B1
Assay type: biochemical
Details: for IC50: dose response measurements with eight concentrations, reported as ranges, read-out: IC50
Description: cAMP HTRF® Assay to Determine the Activity of hPDE4B1
The inhibiting effect of the compounds on the enzyme activity of human PDE4B1 was measured by the quantification of 5′-adenosine monophosphate (5′-AMP), which is formed from 3′,5′-cyclic adenosine monophosphate (cAMP). Human recombinant enzyme, expressed in Sf9 cells, and the HTRF (homogeneous time-resolved fluorescence) detection method were used in the assay.
The test compound or water (control) was mixed with the human recombinant PDE4B1 enzyme (4.8 U) in a buffer consisting of 44.4 mM tris-HCl, 5.28 mM MgCl2, 2.64 mM DTT and 0.044% Tween 20 (pH 7.8). After adding the cAMP enzyme substrate (final concentration 40 nM), the mixture was incubated for 30 minutes at room temperature. Then a fluorescence acceptor (Dye2 marked with cAMP), a fluorescence donor (anti-cAMP antibody marked with a europium cryptate) and the non-specific phosphodiesterase inhibitor IBMX (3-isobutyl-1-methylxanthine; final concentration 1 mM) were added. After 60 minutes the fluorescence transfer, which correlates with the amount of remaining cAMP, was measured with a microplate reader (Rubystar, BMG) at λex=337 nm, λem=620 nm and λem=665 nm. The enzyme activity was calculated from the quotient formed from the measured signal at 665 nm and that at 620 nm. The result was expressed as the percentage inhibition of enzyme activity of the control (without PDE4 inhibitor). The enzyme was omitted for measurement of the basal control.
IC50 values (IC50=concentration causing a half-maximal inhibition of control specific activity) were derived from dose response measurements with eight different concentrations (n=2; N=1-2).
Literature: N. Saldou et al., Comparison of recombinant human PDE4 isoforms: interaction with substrate and inhibitors, Cell. Signal. Vol. 10, No. 6, 427-440, 1998

[1] = Percentage inhibition of PDE4B at 1 μM test concentration

T1 sequence (Q07343 whole entry): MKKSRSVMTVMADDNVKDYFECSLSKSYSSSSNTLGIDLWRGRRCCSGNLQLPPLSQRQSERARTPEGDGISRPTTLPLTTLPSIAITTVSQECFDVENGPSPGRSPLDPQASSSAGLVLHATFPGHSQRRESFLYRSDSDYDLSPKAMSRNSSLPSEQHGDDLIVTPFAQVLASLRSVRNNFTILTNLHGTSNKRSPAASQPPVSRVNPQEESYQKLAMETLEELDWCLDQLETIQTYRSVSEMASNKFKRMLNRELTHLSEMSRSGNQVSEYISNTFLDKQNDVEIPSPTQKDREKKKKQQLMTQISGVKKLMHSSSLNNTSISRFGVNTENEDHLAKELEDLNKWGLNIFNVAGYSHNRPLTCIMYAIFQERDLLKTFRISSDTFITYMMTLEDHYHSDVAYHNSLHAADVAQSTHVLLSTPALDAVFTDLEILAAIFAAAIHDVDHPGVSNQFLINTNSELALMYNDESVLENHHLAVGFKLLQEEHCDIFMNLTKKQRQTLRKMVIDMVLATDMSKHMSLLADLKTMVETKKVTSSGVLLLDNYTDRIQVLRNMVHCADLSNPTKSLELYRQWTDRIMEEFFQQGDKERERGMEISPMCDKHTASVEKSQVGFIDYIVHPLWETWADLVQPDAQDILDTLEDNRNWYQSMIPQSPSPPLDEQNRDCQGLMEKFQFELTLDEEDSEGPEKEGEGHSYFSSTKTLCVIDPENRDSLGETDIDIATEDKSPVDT

SMILES	inhibition at 1 µM [1] [%]	IC50 [nM]	Inhibition at 1 μM test concentration [%] (Percentage inhibition of PDE4B at 1 μM test concentration, 1 µM)
CN(C)C(=O)COc1ccc2c(c1)N(c1nc(-c3ccccc3F)nc3c1C[S+]([O-])C3)CC2 (centres unmarked) [2-100, 2-[[1-[2-(2-Fluorophenyl)-6-oxo-5,7-dihydro-thieno[3,4-d]pyrimidin-4-yl]-2,3-dihydro-1H-indol-6-yl]oxy]-N,N-dimethyl-acetamide]	100	< 100	–
CN(C)C(=O)COc1ccc2c(c1)N(c1nc(-c3cccc(C(F)(F)F)c3)nc3c1C[S+]([O-])C3)CC2 (centres unmarked) [2-101, N,N-Dimethyl-2-[[1-[6-oxo-2-[3-(trifluoromethyl)phenyl]-5,7-dihydro-thieno[3,4-d]pyrimidin-4-yl]-2,3-dihydro-1H-indol-6-yl]oxy]-acetamide]	120	< 100	–
CN(C)C(=O)COc1ccc2c(c1)N(c1nc(-c3ccoc3)nc3c1C[S+]([O-])C3)CC2 (centres unmarked) [2-102, 2-[[1-[2-(Furan-3-yl)-6-oxo-5,7-dihydro-thieno[3,4-d]pyrimidin-4-yl]-2,3-dihydro-1H-indol-6-yl]oxy]-N,N-dimethyl-acetamide]	110	< 100	–
CN(C)C(=O)COc1ccc2c(c1)N(c1nc(-c3ccccc3C#N)nc3c1C[S+]([O-])C3)CC2 (centres unmarked) [2-103, 2-[[1-[2-(2-Cyano-phenyl)-6-oxo-5,7-dihydro-thieno[3,4-d]pyrimidin-4-yl]-2,3-dihydro-1H-indol-6-yl]oxy]-N,N-dimethyl-acetamide]	91	100 to 1000	–
CN(C)C(=O)COc1ccc2c(c1)N(c1nc(-c3ccccc3NS(C)(=O)=O)nc3c1C[S+]([O-])C3)CC2 (centres unmarked) [2-104, 2-[[1-[2-[2-(Methanesulfonamido)-phenyl]-6-oxo-5,7-dihydro-thieno[3,4-d]pyrimidin-4-yl]-2,3-dihydro-1H-indol-6-yl]oxy]-N,N-dimethyl-acetamide]	85	100 to 1000	–
COc1ncccc1-c1nc2c(c(N3CCc4ccc(OCC(=O)N(C)C)cc43)n1)C[S+]([O-])C2 (centres unmarked) [2-105, 2-[[1-[2-(2-Methoxy-pyridin-3-yl)-6-oxo-5,7-dihydro-thieno[3,4-d]pyrimidin-4-yl]-2,3-dihydro-1H-indol-6-yl]oxy]-N,N-dimethyl-acetamide]	77	100 to 1000	–
CN(C)C(=O)COc1ccc2c(c1)N(c1nc(-c3ccc(S(C)(=O)=O)cc3)nc3c1C[S+]([O-])C3)CC2 (centres unmarked) [2-106, N,N-Dimethyl-2-[[1-[2-(4-methylsulfonyl-phenyl)-6-oxo-5,7-dihydro-thieno[3,4-d]pyrimidin-4-yl]-2,3-dihydro-1H-indol-6-yl]oxy]-acetamide]	104	< 100	–
CN(C)C(=O)COc1ccc2c(c1)N(c1nc(-c3cccc(S(C)(=O)=O)c3)nc3c1C[S+]([O-])C3)CC2 (centres unmarked) [2-107, N,N-Dimethyl-2-[[1-[2-(3-methylsulfonyl-phenyl)-6-oxo-5,7-dihydro-thieno[3,4-d]pyrimidin-4-yl]-2,3-dihydro-1H-indol-6-yl]oxy]-acetamide]	113	< 100	–
CN(C)C(=O)COc1ccc2c(c1)N(c1nc(-c3cccc(C(N)=O)c3)nc3c1C[S+]([O-])C3)CC2 (centres unmarked) [2-108, 3-[4-[6-[(Dimethyl-carbamoyl)-methoxy]-2,3-dihydro-1H-indol-1-yl]-6-oxo-5,7-dihydro-thieno[3,4-d]pyrimidin-2-yl]-benzamide]	62	–	–
CC(=O)Nc1ccc(-c2nc3c(c(N4CCc5ccc(OCC(=O)N(C)C)cc54)n2)C[S+]([O-])C3)cc1 (centres unmarked) [2-109, 2-[[1-[2-(4-Acetylamino-phenyl)-6-oxo-5,7-dihydro-thieno[3,4-d]pyrimidin-4-yl]-2,3-dihydro-1H-indol-6-yl]oxy]-N,N-dimethyl-acetamide]	98	< 100	–
CCOc1ccc(-c2nc3c(c(N4CCc5ccc(OCC(=O)N(C)C)cc54)n2)C[S+]([O-])C3)cc1 (centres unmarked) [2-110, 2-[[1-[2-(4-Ethoxyphenyl)-6-oxo-5,7-dihydro-thieno[3,4-d]pyrimidin-4-yl]-2,3-dihydro-1H-indol-6-yl]oxy]-N,N-dimethyl-acetamide]	119	< 100	–

The next lines start with the values.

inhibition at 1 µM [1] [%]	IC50 [nM]	Inhibition at 1 μM test concentration [%] (Percentage inhibition of PDE4B at 1 μM test concentration, 1 µM)	SMILES
72	100 to 1000	–	COc1cc(-c2nc3c(c(N4CCc5ccc(OCC(=O)N(C)C)cc54)n2)C[S+]([O-])C3)ccc1Cl (centres unmarked) [2-111, 2-[[1-[2-(4-Chloro-3-methoxy-phenyl)-6-oxo-5,7-dihydro-thieno[3,4-d]pyrimidin-4-yl]-2,3-dihydro-1H-indol-6-yl]oxy]-N,N-dimethyl-acetamide]
64	100 to 1000	–	COc1cc(F)ccc1-c1nc2c(c(N3CCc4ccc(OCC(=O)N(C)C)cc43)n1)C[S+]([O-])C2 (centres unmarked) [2-112, 2-[[1-[2-(4-Fluoro-2-methoxy-phenyl)-6-oxo-5,7-dihydro-thieno[3,4-d]pyrimidin-4-yl]-2,3-dihydro-1H-indol-6-yl]oxy]-N,N-dimethyl-acetamide]
99	< 100	–	CN(C)C(=O)COc1ccc2c(c1)N(c1nc(-c3cc(F)ccc3F)nc3c1C[S+]([O-])C3)CC2 (centres unmarked) [2-113, 2-[[1-[2-(2,5-Difluoro-phenyl)-6-oxo-5,7-dihydro-thieno[3,4-d]pyrimidin-4-yl]-2,3-dihydro-1H-indol-6-yl]oxy]-N,N-dimethyl-acetamide]
102	–	101	CN(C)C(=O)COc1ccc2c(c1)N(c1nc(-c3ccnc(F)c3)nc3c1C[S+]([O-])C3)CC2 (centres unmarked) [2-138, 2-((1-(2-(2-Fluoropyridin-4-yl)-6-oxido-5,7-dihydrothieno[3,4-d]pyrimidin-4-yl)indolin-6-yl)oxy)-N,N-dimethylacetamide]
92	100 to 1000	–	CN(C)C(=O)COc1ccc2c(c1)N(c1nc(-c3cncnc3)nc3c1C[S+]([O-])C3)CC2 (centres unmarked) [2-144, N,N-Dimethyl-2-[[1-(6-oxo-2-pyrimidin-5-yl-5,7-dihydro-thieno[3,4-d]pyrimidin-4-yl)-2,3-dihydro-1H-indol-6-yl]oxy]-acetamide]
95	< 100	–	CN(C)C(=O)COc1ccc2c(c1)N(c1nc(-c3ccc4c(c3)OCO4)nc3c1C[S+]([O-])C3)CC2 (centres unmarked) [2-145, 2-[[1-[2-(1,3-Benzodioxo1-5-yl)-6-oxo-5,7-dihydro-thieno[3,4-d]pyrimidin-4-yl]-2,3-dihydro-1H-indol-6-yl]oxy]-N,N-dimethyl-acetamide]
104	< 100	–	CN(C)C(=O)COc1ccc2c(c1)N(c1nc(-c3cnc4ccccc4c3)nc3c1C[S+]([O-])C3)CC2 (centres unmarked) [2-146, N,N-Dimethyl-2-[[1-(6-oxo-2-quinolin-3-yl-5,7-dihydro-thieno[3,4-d]pyrimidin-4-yl)-2,3-dihydro-1H-indol-6-yl]oxy]-acetamide]
86	< 100	–	CN(C)C(=O)COc1ccc2c(c1)N(c1nc(-c3ccc4cc[nH]c4c3)nc3c1C[S+]([O-])C3)CC2 (centres unmarked) [2-147, 2-[[1-[2-(1H-Indol-6-yl)-6-oxo-5,7-dihydro-thieno[3,4-d]pyrimidin-4-yl]-2,3-dihydro-1H-indol-6-yl]oxy]-N,N-dimethyl-acetamide]
100	< 100	–	CN(C)C(=O)COc1ccc2c(c1)N(c1nc(-c3ccc4cnccc4c3)nc3c1C[S+]([O-])C3)CC2 (centres unmarked) [2-148, 2-[[1-(2-Isoquinolin-6-yl-6-oxo-5,7-dihydro-thieno[3,4-d]pyrimidin-4-yl)-2,-dihydro-1H-indol-6-yl]oxy]-N,N-dimethyl-acetamide]
92	< 100	–	CN(C)C(=O)COc1ccc2c(c1)N(c1nc(-c3ccc4cccnc4c3)nc3c1C[S+]([O-])C3)CC2 (centres unmarked) [2-149, N,N-Dimethyl-2-[[1-(6-oxo-2-quinolin-7-yl-5,7-dihydro-thieno[3,4-d]pyrimidin-4-yl)-2,3-dihydro-1H-indol-6-yl]oxy]-acetamide]
126	< 100	–	CN(C)C(=O)COc1ccc2c(c1)N(c1nc(-c3ccc4ccncc4c3)nc3c1C[S+]([O-])C3)CC2 (centres unmarked) [2-150, 2-[[1-(2-Isoquinolin-7-yl-6-oxo-5,7-dihydro-thieno[3,4-d]pyrimidin-4-yl)-2,3-dihydro-1H-indol-6-yl]oxy]-N,N-dimethyl-acetamide]
108	< 100	–	CN(C)C(=O)COc1ccc2c(c1)N(c1nc(-c3cccc4[nH]ccc34)nc3c1C[S+]([O-])C3)CC2 (centres unmarked) [2-151, 2-[[1-[2-(1H-Indol-4-yl)-6-oxo-5,7-dihydro-thieno[3,4-d]pyrimidin-4-yl]-2,3-dihydro-1H-indol-6-yl]oxy]-N,N-dimethyl-acetamide]
88	< 100	–	CN(C)C(=O)COc1ccc2c(c1)N(c1nc(-c3ccc4[nH]ccc4c3)nc3c1C[S+]([O-])C3)CC2 (centres unmarked) [2-152, 2-[[1-[2-(1H-Indol-5-yl)-6-oxo-5,7-dihydro-thieno[3,4-d]pyrimidin-4-yl]-2,3-dihydro-1H-indol-6-yl]oxy]-N,N-dimethyl-acetamide]

Source: US9527832B2, “Substituted condensed pyrimidine compounds” (GRÜNENTHAL GMBH, priority 2013, dated 2016)
